# Measurements: paper PMC6627993 (International Journal of Molecular Sciences, 2019)
# Where two headings read alike, the source gives them in different places.
# Experiments:
# A2780 [1] = conditions: cited from earlier work
# A2780 [2] = experiment: MTT cell viability assay
# Experimental: (§4) The rate of cell-survival under the action of test substances was evaluated by an improved MTT assay as previously described [20, 31]. […] Incubation was ended after 72 h and cell survival was determined by addition of MTT (Serva, Heidelberg, Germany) solution (5 mg/mL in phosphate buffered saline). The formazan precipitate was dissolved in DMSO (VWR, Langenfeld, Germany). Absorbance was measured at 544 nm and 690 nm in a FLUOstar microplate-reader (BMG LabTech, Offenburg, Germany).
# CaOV3 = experiment: MTT cell viability assay
# Experimental: as §4
# HEY [3] = experiment: MTT cell viability assay
# Experimental: as §4
# Kuramochi = experiment: MTT cell viability assay
# Experimental: as §4
# OVSAHO [4] = experiment: MTT cell viability assay
# Experimental: as §4
# HDAC in A2780 cells = experiment: Whole-cell HDAC inhibition assay; type: cell-based, human; conditions: 18 h incubation
# Experimental: (§1) The cellular HDAC assay was based on an assay published by Heltweg and Jung, Ciossek et al., and Bonfils et al. with minor modifications as described in [20]. Briefly, human cancer cell lines A2780, CaOV3, HEY, Kuramochi, and OVSAHO were seeded in 96-well tissue culture plates (Corning, Kaiserslautern, Germany) at a density of 15,000 c/w, 15,000 c/w, 17,500 c/w, 22,500 c/w, and 50,000 c/w in a total volume of 90 µL of culture medium. After 24 h, cells were incubated for 18 h with increasing concentrations of test compounds. The reaction was started by adding 10 µL of 3 mM Boc-Lys(Ac)-AMC (Bachem, Bubendorf, Switzerland) to reach final concentration of 0.3 mM [61]. The cells were incubated with the Boc-Lys(Ac)-AMC for 3 h under cell culture conditions. […] Fluorescence intensity was measured at excitation of 320 nm and emission of […] in a NOVOstar microplate reader (BMG LabTech, Offenburg, Germany).
# HDAC in CaOV3 cells = experiment: Whole-cell HDAC inhibition assay; type: cell-based, human; conditions: 18 h incubation
# Experimental: as §1
# HDAC in HEY cells = experiment: Whole-cell HDAC inhibition assay; type: cell-based, human; conditions: 18 h incubation
# Experimental: as §1
# HDAC in Kuramochi cells = experiment: Whole-cell HDAC inhibition assay; type: cell-based, human; conditions: 18 h incubation
# Experimental: as §1
# HDAC in OVSAHO cells = experiment: Whole-cell HDAC inhibition assay; type: cell-based, human; conditions: 18 h incubation
# Experimental: as §1
# A2780 [5] = experiment: Synergism study (Chou-Talalay, MTT), 48 h HDACi + 72 h HDACi and cisplatin; type: cell-based, human
# Experimental: (§2) Concentrations were chosen to achieve a fraction affected (fa; level of cell viability inhibition) between 0.2 and 0.9 in the Chou-Talalay-analysis.
# (§3) After 72 h, the cytotoxic effect was determined with a MTT cell viability assay. Calcusyn software 2.1 (Biosoft, Cambridge, UK) was used to calculate the combination index (CI) as a quantitative measure of the degree of drug interaction.
# HEY [6] = experiment: as above; type: cell-based, human
# Experimental: as §2, §3
# OVSAHO [7] = experiment: as above; type: cell-based, human
# Experimental: as §2, §3
# [8] = system: A2780, CaOV3, HEY, Kuramochi, OVSAHO; experiment: Synergism study (Chou-Talalay, MTT), all cell lines; type: cell-based, human; conditions: 48 h + 72 h; CI < 0.9 indicates synergism
# Experimental: as §2, §3
# HEY [9] = experiment: Measurement of apoptotic nuclei (subG1, flow cytometry); type: cell-based, human; conditions: HDACi 48 h, then cisplatin IC50 24 h
# Experimental: Next, we investigated if the observed synergistic cytotoxic effect was mediated via apoptosis-induction. […] Then, cells were subjected to flow-cytometry-based subG1 analysis.
# A2780, CaOV3, HEY, Kuramochi, and OVSAHO cells were seeded at a density of 40,000 c/w, 50,000 c/w, 40,000 c/w, 60,000 c/w, and 100,000 c/w in 24-well plates (Sarstedt, Nürnbrecht, Germany). Cells were treated with entinostat, panobinostat, or nexturastat A and cisplatin alone or in combination for the indicated time points. Supernatant was removed after a centrifugation step and the cells were lysed in 500 µL hypotonic lysis buffer (0.1% sodium citrate, 0.1% Triton X-100, 100 µg/mL PI) at 4 °C in the dark overnight. The percentage of apoptotic nuclei with DNA content in sub-G1 was analyzed by flow cytometry using the CyFlow instrument (Partec, Norderstedt, Germany).
# [10] = read-out: IC50 of cisplatin, cisplatin alone, 72 h
# [11] = read-out: IC50 (HDAC inhibitory activity)
# [12] = cisplatin 1.00 µM + panobinostat 40 nM
# [13] = cisplatin 2.00 µM + panobinostat 40 nM
# [14] = cisplatin 4.00 µM + panobinostat 40 nM
structure (smiles),measurement,setting,value
"N.N.[Cl][Pt][Cl] [Cisplatin, cis-diamminedichloridoplatinum(II)]",IC50-values for cisplatin in previous studies,A2780 [1],one-digit micromolar range
same,IC50,A2780 [2]; 72 h incubation,11 µM
same,pIC50 ± SEM,A2780 [2]; 72 h incubation,4.96 ± 0.01
same,IC50,A2780 [2]; [10],11 µM
same,IC50,CaOV3; 72 h incubation,1.44 µM
same,pIC50 ± SEM,CaOV3; 72 h incubation,5.84 ± 0.01
same,IC50,CaOV3; [10],1.44 µM
same,IC50,HEY [3]; 72 h incubation,5.25 µM
same,pIC50 ± SEM,HEY [3]; 72 h incubation,5.28 ± 0.01
same,IC50,HEY [3]; [10],5.25 µM
same,IC50,Kuramochi; 72 h incubation,4.68 µM
same,pIC50 ± SEM,Kuramochi; 72 h incubation,5.33 ± 0.02
same,IC50,Kuramochi; [10],4.68 µM
same,IC50,OVSAHO [4]; 72 h incubation,4.83 µM
same,pIC50 ± SEM,OVSAHO [4]; 72 h incubation,5.32 ± 0.01
same,IC50,OVSAHO [4]; [10],4.83 µM
"Cc1[nH]c2ccccc2c1CCNCc1ccc(/C=C/C(=O)NO)cc1 [Panobinostat, panobinostat]",pIC50 ± SEM (HDAC inhibitory activity),HDAC in A2780 cells,7.91 ± 0.06
same,IC50,HDAC in A2780 cells; [11],0.0121 µM
same,pIC50 ± SEM (HDAC inhibitory activity),HDAC in CaOV3 cells,8.10 ± 0.05
same,IC50,HDAC in CaOV3 cells; [11],0.00788 µM
same,pIC50 ± SEM (HDAC inhibitory activity),HDAC in HEY cells,7.87 ± 0.03
same,IC50,HDAC in HEY cells; [11],0.0136 µM
same,pIC50 ± SEM (HDAC inhibitory activity),HDAC in Kuramochi cells,8.01 ± 0.07
same,IC50,HDAC in Kuramochi cells; [11],0.00987 µM
same,pIC50 ± SEM (HDAC inhibitory activity),HDAC in OVSAHO cells,7.64 ± 0.04
same,IC50,HDAC in OVSAHO cells; [11],0.0231 µM
same,combination index (CI),A2780 [5]; cisplatin 0.50 µM + panobinostat 10 nM,0.21
same,combination index (CI),A2780 [5]; cisplatin 0.50 µM + panobinostat 20 nM,0.10
same,combination index (CI),A2780 [5]; cisplatin 0.50 µM + panobinostat 30 nM,0.15
same,combination index (CI),A2780 [5]; cisplatin 0.50 µM + panobinostat 40 nM,0.15
same,combination index (CI),A2780 [5]; cisplatin 1.00 µM + panobinostat 10 nM,0.25
same,combination index (CI),A2780 [5]; cisplatin 1.00 µM + panobinostat 20 nM,0.12
same,combination index (CI),A2780 [5]; cisplatin 1.00 µM + panobinostat 30 nM,0.17
same,combination index (CI),A2780 [5]; [12],0.18
same,combination index (CI),A2780 [5]; cisplatin 2.00 µM + panobinostat 10 nM,0.35
same,combination index (CI),A2780 [5]; cisplatin 2.00 µM + panobinostat 20 nM,0.16
same,combination index (CI),A2780 [5]; cisplatin 2.00 µM + panobinostat 30 nM,0.22
same,combination index (CI),A2780 [5]; [13],0.21
same,combination index (CI),A2780 [5]; cisplatin 4.00 µM + panobinostat 10 nM,0.35
same,combination index (CI),A2780 [5]; cisplatin 4.00 µM + panobinostat 20 nM,0.21
same,combination index (CI),A2780 [5]; cisplatin 4.00 µM + panobinostat 30 nM,0.27
same,combination index (CI),A2780 [5]; [14],0.25
same,combination index (CI),A2780 [5]; cisplatin 6.00 µM + panobinostat 10 nM,0.29
same,combination index (CI),A2780 [5]; cisplatin 6.00 µM + panobinostat 20 nM,0.23
same,combination index (CI),A2780 [5]; cisplatin 6.00 µM + panobinostat 30 nM,0.26
same,combination index (CI),A2780 [5]; cisplatin 6.00 µM + panobinostat 40 nM,0.26
same,combination index (CI),HEY [6]; cisplatin 0.32 µM + panobinostat 5.0 nM,* (* means fraction affected is less than 0.20)
same,combination index (CI),HEY [6]; cisplatin 0.32 µM + panobinostat 10.0 nM,* (* means fraction affected is less than 0.20)
same,combination index (CI),HEY [6]; cisplatin 0.32 µM + panobinostat 20.0 nM,0.14
same,combination index (CI),HEY [6]; cisplatin 0.32 µM + panobinostat […],0.19
same,combination index (CI),HEY [6]; cisplatin 0.50 µM + panobinostat 5.0 nM,* (* means fraction affected is less than 0.20)
same,combination index (CI),HEY [6]; cisplatin 0.50 µM + panobinostat 10.0 nM,* (* means fraction affected is less than 0.20)
same,combination index (CI),HEY [6]; cisplatin 0.50 µM + panobinostat 20.0 nM,0.15
same,combination index (CI),HEY [6]; cisplatin 0.50 µM + panobinostat […],0.21
same,combination index (CI),HEY [6]; cisplatin 1.00 µM + panobinostat 5.0 nM,* (* means fraction affected is less than 0.20)
same,combination index (CI),HEY [6]; cisplatin 1.00 µM + panobinostat 10.0 nM,* (* means fraction affected is less than 0.20)
same,combination index (CI),HEY [6]; cisplatin 1.00 µM + panobinostat 20.0 nM,0.16
same,combination index (CI),HEY [6]; cisplatin 1.00 µM + panobinostat […],0.25
same,combination index (CI),HEY [6]; cisplatin 2.00 µM + panobinostat 5.0 nM,* (* means fraction affected is less than 0.20)
same,combination index (CI),HEY [6]; cisplatin 2.00 µM + panobinostat 10.0 nM,0.41
same,combination index (CI),HEY [6]; cisplatin 2.00 µM + panobinostat 20.0 nM,0.17
same,combination index (CI),HEY [6]; cisplatin 2.00 µM + panobinostat […],0.25
same,combination index (CI),HEY [6]; cisplatin 4.00 µM + panobinostat 5.0 nM,0.51
same,combination index (CI),HEY [6]; cisplatin 4.00 µM + panobinostat 10.0 nM,0.33
same,combination index (CI),HEY [6]; cisplatin 4.00 µM + panobinostat 20.0 nM,0.20
same,combination index (CI),HEY [6]; cisplatin 4.00 µM + panobinostat […],0.28
same,combination index (CI),OVSAHO [7]; [12],0.36
same,combination index (CI),OVSAHO [7]; cisplatin 1.00 µM + panobinostat 50 nM,0.33
same,combination index (CI),OVSAHO [7]; cisplatin 1.00 µM + panobinostat 60 nM,0.27
same,combination index (CI),OVSAHO [7]; cisplatin 1.00 µM + panobinostat 70 nM,0.26
same,combination index (CI),OVSAHO [7]; [13],0.25
same,combination index (CI),OVSAHO [7]; cisplatin 2.00 µM + panobinostat 50 nM,0.23
same,combination index (CI),OVSAHO [7]; cisplatin 2.00 µM + panobinostat 60 nM,0.21
same,combination index (CI),OVSAHO [7]; cisplatin 2.00 µM + panobinostat 70 nM,0.21
same,combination index (CI),OVSAHO [7]; cisplatin 3.00 µM + panobinostat 40 nM,0.24
same,combination index (CI),OVSAHO [7]; cisplatin 3.00 µM + panobinostat 50 nM,0.22
same,combination index (CI),OVSAHO [7]; cisplatin 3.00 µM + panobinostat 60 nM,0.21
same,combination index (CI),OVSAHO [7]; cisplatin 3.00 µM + panobinostat 70 nM,0.21
same,combination index (CI),OVSAHO [7]; [14],0.23
same,combination index (CI),OVSAHO [7]; cisplatin 4.00 µM + panobinostat 50 nM,0.22
same,combination index (CI),OVSAHO [7]; cisplatin 4.00 µM + panobinostat 60 nM,0.21
same,combination index (CI),OVSAHO [7]; cisplatin 4.00 µM + panobinostat 70 nM,0.21
same,combination index (CI),OVSAHO [7]; cisplatin 5.00 µM + panobinostat 40 nM,0.24
same,combination index (CI),OVSAHO [7]; cisplatin 5.00 µM + panobinostat 50 nM,0.23
same,combination index (CI),OVSAHO [7]; cisplatin 5.00 µM + panobinostat 60 nM,0.22
same,combination index (CI),OVSAHO [7]; cisplatin 5.00 µM + panobinostat 70 nM,0.22
same,CI-values (interaction with cisplatin),[8],lower than 0.9
same,"apoptosis induction, combination with cisplatin versus cisplatin or HDACi alone",HEY [9],no difference in apoptosis induction
